pEC50: −log10 of the molar value.
Tests used:
[1] = test system: PLD1; assay: basic PLD assay with purified PLD1 and activators (headgroup-labeled phosphatidylcholine); type: biochemical, human; parameters: increase in maximal effect of PKC- on PLD1: dose or concentration left out as unconfirmed; conditions: for lipid content giving maximal activation of PLD1: lipid fraction of vesicles; for stimulation of PLD1 activity by lipid: vesicles with 7% acidic lipid in PE/PS background
Procedure: The basic PLD assay was performed as described in Hammond, J. Biol. Chem. 270: 29640-43 (1995) using headgroup-labeled phosphatidyl-choline. Lipids were prepared and labeled. Labeled choline was obtained from American Radiolabelled Chemicals Inc. (Catalog No. ART 284) and extracted with chloroform and methanol 100 ml chloroform/100 ml methanol/90 ml water (100,000 dpm/assay; 1.6 ml). The mixture was vortexed, spun and the bottom layer collected and added to the lipid mixture to give a final concentration of 67 mM PE (Avanti Polar Lipids, Alabaster, Ala., catalog no 850757), 7.6 mM PIP2 (suspended in 20 mM Hepes, pH 7) and 5.4 mM PC (Avanti catalog no 850457). The labeled choline/lipid mixture was sonicated and vortexed until the lipids are dissolved. Sf9 cells were plated onto large flasks (30×10^6 cells/flask) and left to adhere. Once adhered, medium was removed and the cells were infected with virus (at 1:5 or 1:10) for 1 hour with gentle rocking. After that time, virus was removed and fresh medium added, and the cells left to grow for 48 hours at 27 C. Medium was removed from the flask and the cells were washed once with PBS and then lysed in 5 ml lysis buffer (25 mM Tris, 5 mM EDTA, pH 7.5). Cells were scraped out of the flask, placed on ice, sonicated for 10 seconds and centrifuged in a […] centrifuge for 10 minutes at 700 rpm. Supernatant was removed and spun at 30,000 rpm for 60 minutes. Supernatant from this second centrifugation was then removed, and the pellet was resuspended in 0.5 ml lysis buffer, votexed and allowed to settle out.
For the assay, the resulting supernatant containing PLD1 enzyme (1-10 ml) was combined with G-protein(s), 20 ml assay buffer (30 mM Na-Hepes, pH 7.5, 3 mM EGTA, 80 mM KCl, 1 mM DTT, 3.0 mM MgCl2 and 2.0 mM CaCl2) and 10 mM Hepes to make a total volume of 50 ml. 50 ml of the labeled lipid mixture was added, vortexed thoroughly, and incubated at 37 C. for 30 minutes. The reaction was stopped by adding 200 ml of 10% TCA and 100 ml of 10 mg/ml BSA and centrifugation for 5 minutes at 10,000 rpm. […] of the supernatant was removed and counted in 2 ml of scintillation fluid using a LKB scintillation counter for 60 seconds. This was the basic assay used for the following experiments; any modifications were as described below.
To investigate the dependence of enzyme activity on calcium and magnesium, the concentrations of calcium and magnesium ions of the assay medium were varied. For some assays the lipid component of the vesicles was altered. Ptdins (4,5)P2 was purified from a lipid extract of bovine brain as described in Hammond, supra. Synthetic Ptdins (3,4,5)P3 was obtained from Glenn Prestwich, Dept. of Chemistry, SUNY Stony Brook. [^32P]-labeled phospholipids were isolated from extracts of U937 cells labeled overnight with [^32P] PO4 2- as described in Hammond, supra.
Vesicles containing 7% acidic lipid in a background of PE/PS were employed in the foregoing assay. The lipids tested were PI(4,5)P2, PI(3,4,5)P3, PI4P and PI.
ARF-stimulated PLD1activity was determined as the free concentrations of these ions were varied in the assay medium. PLD1 activity was insensitive to changes in Ca^2+ concentration over a side range (<10^−8 M to 10^−2 M). By contrast, ARF-stimulated PLD1 activity was dependent on Mg^2+ with half-maximal activity observed at approximately 10^−4 M.
PLD1 was incubated with increasing concentrations of purified GTP S-activated ARF1(ADP-ribosylation factor 1), RhoA, Rac1 and cdc42. […] RhoA and Rac1 stimulated the enzyme approximately 10- and 13-fold respectively and cdc42 produced an approximately 5-fold activation. Effects of ARF and Rac1 were clearly saturable and, although the concentrations of purified RhoA and cdc42 obtained limited the final concentrations achieved in the assay, at the highest concentrations used, effects of these activators also appeared to be approaching saturation. Activation of PLD1 by these G-proteins was strictly dependent on GTP S. […]

[2] = test system: HL-60 cells; assay: RT-PCR quantification of hPLD2 during dbcAMP-induced HL-60 cell differentiation; type: cell-based, human; conditions: 0.5 mM dbcAMP
Procedure: From the data of Example 7, it was known that a human analog of mPLD2 existed. mPLD2 primers were made from the expressed sequence tags existing in GenBank. To analyze changes in the levels of hPLD2 activity during HL-60 cell differentiation induced by dcbAMP, HL-60 cells maintained in RPMI-1640 medium supplemented with 10% fetal bovine serum, 100 units.ml penicillin and 100 µg/ml streptomycin in a humidified atmosphere containing 5% CO2, at 37 C. were grown in RPMI-1640 medium without fetal bovine serum for 24 hours. Differentiation was initiated by the addition of 0.5 mM dbcAMP. Levels of hPLD2 were quantified later by RT-PCR. Total RNA was isolated from the HL-60 cells at the exponential growth stage by the acid guanidine thiocyanate method following the protocol of Chomczynski, Anal. Biochem. 162:156-62(1992). Two g of RNA was reverse transcribed by using random hexamer mixed primers. The number of amplification cycles were determined to individual primer sets in order to maintain exponential rate of product amplification. Amplified DNA fragments were subjected to electrophoresis on 1.5% agarose gel and visualized by ethidium bromide staining. The intensity of bands was quantified by a densitometer (Atto Densitograph, Tokyo, Japan). Primer E (Forward):
5′[…] 3′. Primer F (reverse):
5′[…] 3′. Amplification conditions used were 94 C. for 30 seconds, 60 C. for 1 minute, and 72 C. for 1 minute; 25-27 cycles.

## [Mg+2] [Mg^2+]
[1]; ARF-stimulated PLD1, free ion concentration, read-out: concentration for half-maximal ARF-stimulated PLD1 activity
  pEC50: ~4.00

## hPLD2: human analog of mPLD2
[2]; day 1, RT-PCR
  increase in level (printed as activity) on day 1: approximately 8 fold
[2]; day 2, RT-PCR
  increase in level (printed as activity) on day 2: approximately 12 fold
[2]; day 3, RT-PCR
  increase in level (printed as activity) on day 3: approximately 20 fold

## PI(3,4,5)P3
[1]
  lipid content giving maximal activation of PLD1: approximately 7%
  stimulation of PLD1 activity by lipid: stimulated

## CCCCCCCCCCCCCC(=O)O[C@@H]1[C@@H](C)[C@@]2(O)[C@@H](C=C(CO)C[C@]3(O)C(=O)C(C)=C[C@@H]23)[C@@H]2C(C)(C)[C@]12OC(C)=O [PMA, phorbolmyristate acetate]
[1]; 100 mM PMA in assay medium
  increase in potency with which PKC- stimulated PLD1: approximately 10 fold
[1]; PMA in assay medium
  increase in maximal effect of PKC- on PLD1: approximately 1.5 fold

## phosphotidylinositol [PI]
[1]
  stimulation of PLD1 activity by lipid: Only PI(4,5)P2 and PI(3,4,5)P3 stimulated

## ARF1: Human ARF1, bacterially-expressed and purified G-protein, GTP S-activated
[1]; GTP S-activated G-protein, increasing concentrations
  stimulation of PLD1 (maximal, concentration series): approximately 50 fold
[1]; maximally effective concentration: ARF1 4.7 M, RhoA 3.8 M, Rac1 5.3 M, cdc42 5.5 M, PKC- 0.043 M
  activation of PLD1 by activator alone: 49 fold
[1]; plus maximally effective PKC-
  activation of PLD1 over basal combined with PKC-: 145 fold

## O=P(O)(O)O[C@@H]1[C@H](O)[C@H](O)[C@@H](OP(=O)(O)O)[C@H](OP(=O)(O)O)[C@H]1O [inositol 1,4,5 trisphosphate]
[1]; soluble, concentrations up to […]
  activation of PLD1 or block of activation by PI(4,5)P2 or PI(3,4,5)P3: neither activated PLD1 nor blocked activation

## PI(4,5)P2
[1]
  lipid content giving maximal activation of PLD1: approximately 7%
  stimulation of PLD1 activity by lipid: stimulated

## phosphotidylinositol 4-phosphate [PI4P]
[1]
  stimulation of PLD1 activity by lipid: Only PI(4,5)P2 and PI(3,4,5)P3 stimulated

## [Ca+2] [Ca^2+]
[1]; ARF-stimulated, <10^−8 M to 10^−2 M
  sensitivity of PLD1 activity to ion concentration: insensitive
